The values below come from BindingDB's records for patent US12194050 (Richter Gedeon, 2025).

This test deals with Neuronal acetylcholine receptor subunit alpha-7 (Homo sapiens, UniProt P36544). In words: Ca2+ Fluorometry. Here is the method: α7 cells stably expressing human α7 nAchR were cultured in the medium detailed above, and were split twice a week. For the fluorometric measurements of cytosolic Ca2+ ion concentration ([Ca2+]i) cells were seeded in 96-well microplates at a density of 60000 cells/well and maintained overnight in a tissue culture incubator at 37° C. under an atmosphere of 95% air/5% CO2. The plating medium was identical with the culture medium. 50 μl of the growth medium was aspirated with a cell washer (BioTek Elx405UCVWS). Then 50 μl/well Calcium 5 kit diluted 2-fold in assay buffer was added manually using an 8-channel pipette. […] Baseline and agonist-evoked [Ca2+]i-changes were monitored with FlexStation II (Molecular Devices, Sunnyvale, Calif.), a plate reader fluorometer with integrated 8-channel fluid addition capability. Fluorescence measurements were carried out at 37° C. […] Baseline was recorded for 20 seconds followed by agonist stimulation. 50 μl 4× concentrated agonist solution was added to the cells using the pipettor of FlexStation II and fluorescence was monitored for an additional 40 seconds. […] In all experiments, all treatments were measured in multiple wells in parallel, and the mean ΔF/F values were used for analysis.
Sequence of Neuronal acetylcholine receptor subunit alpha-7 (P36544 whole entry): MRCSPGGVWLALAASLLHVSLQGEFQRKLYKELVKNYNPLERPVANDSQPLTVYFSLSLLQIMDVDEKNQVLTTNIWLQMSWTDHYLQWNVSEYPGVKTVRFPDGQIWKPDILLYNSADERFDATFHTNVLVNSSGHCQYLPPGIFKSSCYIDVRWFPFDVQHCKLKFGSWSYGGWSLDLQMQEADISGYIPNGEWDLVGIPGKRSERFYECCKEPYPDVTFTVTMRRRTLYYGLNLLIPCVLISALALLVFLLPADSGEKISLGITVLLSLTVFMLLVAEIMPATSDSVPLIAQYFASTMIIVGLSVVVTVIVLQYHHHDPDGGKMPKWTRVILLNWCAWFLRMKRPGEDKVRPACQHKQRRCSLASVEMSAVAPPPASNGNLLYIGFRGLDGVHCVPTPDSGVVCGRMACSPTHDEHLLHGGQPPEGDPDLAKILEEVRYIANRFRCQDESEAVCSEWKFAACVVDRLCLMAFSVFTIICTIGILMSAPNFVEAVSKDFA

As for `CCN1C(C(=O)Nc2cccc(C(F)(F)F)n2)=CC([C@H]2CC[C@H](C(F)(F)F)CC2)=NS1(=O)=O` [US12194050, Example 53], the EC50 stood at 90 nM.

A word on the EC50: it is the concentration giving half of the maximal effect. Low values mean an effect from little substance, high ones a need for much substance.
